The record followed here is US6605424B1, “Method of detecting inhibitors of agonist-specific desensitization” (Duke University, priority 1989, dated 2003).

The test system of test [1] is β2ARs in permeabilized A431 cells. Put plainly: Phosphorylation of β2ARs in permeabilized A431 cells. It counts as cell-based, human. Particulars: 1 μM isoproterenol, absence of heparin. The method, then: FIG. 8. Phosphorylation of β2ARs in permeabilized A431 cells. […] FIG. 8A: Autoradiogram obtained after a 10-day exposure at −70° C. FIG. 8B: Transverse densitometric scan of the autoradiogram.
β2ARs in permeabilized A431 cells were phosphorylated as follows. Permeabilized cells (4×10^8) in 10 ml of KG-A buffer containing 1 mCi (1 Ci=37 GBq) of [γ-^32P]ATP were incubated with or without 1 μM (−)-isoproterenol (and other compounds as indicated) for 10 min at 37° C. All buffers used in these experiments contained 5 μg of soybean tryspin inhibitor, 5 μg of leupeptin, and 10 μg of benzamidine per ml and 0.1 mM phenylmethylsulfonyl fluoride. […] After three identical washing steps, crude membranes were prepared as above.
Aliquots of the samples (≈60 fmol of β2ARs) were desalted over Sephadex G-50 and incubated for 2 hr at 20° C. with 200 pM of the ligand with or without 10 μM alprenolol. Free ligand was removed by desalting as above, and the samples were irradiated with UV light for 3 min. The samples were loaded on the same gel as the samples described above.

Test [2] deals with adenylyl cyclase in membranes of A431 cells. Put plainly: cells. The conditions noted are these: Homo sapiens. The method, then: FIG. 5. […] Cells were incubated for 10 min with (desensitized) (●) or without (control) (◯) 1 μM (−)-isoproterenol as detailed. Adenylyl cyclase activities of membranes prepared from the cells were measured in the presence of various concentrations of (−)-isoproterenol and were expressed as percent of the activity in the presence of 10 mM NaF. […] Data are means±SEM of three independent experiments.
Desensitization of β2ARs in A431 cells was effected as follows. Permeabilized cells in KG-A buffer (or, for controls, intact cells in PBS) were incubated with or without 1 μM (−)-isoproterenol for 10 min or the indicated times (4×10^7 cells per ml). The incubation was terminated by addition of 10 vol of ice-cold KG buffer (or PBS, respectively), followed by centrifugation at 1000×g for 5 min. After three identical washes, cells were disrupted with a Polytron homogenizer in 5 mM Tris-HCl, pH 7.4/2 mM EDTA. Crude membranes were prepared by spinning the supernatant after low-speed centrifugation (1000×g for 5 min) at 40,000×g for 20 min.
Adenylyl cyclase activity in the membranes was determined as described by Salomon et al (Anal. Biochem. (1974) 58:541-548). The free Mg^2+ concentration in the assay was 4 mM.
Concentration-response curves were analyzed by nonlinear curve-fitting to the Hill equation as described (Lohse et al (1986) Mol. Pharmacol. 30:403-409). Adenylyl cyclase activity was expressed as the percentage of the activity in the presence of 10 mM NaF. Since NaF stimulates adenylyl cyclase via the stimulatory guanine nucleotide binding protein, Gs, this normalizes for effects that occur at the level of Gs or the cyclase (i.e., which effects represent heterologous desensitization). Desensitization was assessed by measuring the loss of maximal stimulation by isoproterenol [determined with 10 μM (−)-isoproterenol] and was calculated as [1−stimulation (desensitized)/stimulation (control)]×100. For example, a decrease from 60% to 40% of NaF-stimulated activity corresponds to a desensitization of [1−(40/60)]×100=33%.

Test [3] addresses T1, βAR kinase (Bos taurus, UniProt P21146).
T1 construct: βAR kinase was purified from bovine cerebral cortex; from tissue; host or cells: bovine cerebral cortex
T1 sequence (P21146 1-689): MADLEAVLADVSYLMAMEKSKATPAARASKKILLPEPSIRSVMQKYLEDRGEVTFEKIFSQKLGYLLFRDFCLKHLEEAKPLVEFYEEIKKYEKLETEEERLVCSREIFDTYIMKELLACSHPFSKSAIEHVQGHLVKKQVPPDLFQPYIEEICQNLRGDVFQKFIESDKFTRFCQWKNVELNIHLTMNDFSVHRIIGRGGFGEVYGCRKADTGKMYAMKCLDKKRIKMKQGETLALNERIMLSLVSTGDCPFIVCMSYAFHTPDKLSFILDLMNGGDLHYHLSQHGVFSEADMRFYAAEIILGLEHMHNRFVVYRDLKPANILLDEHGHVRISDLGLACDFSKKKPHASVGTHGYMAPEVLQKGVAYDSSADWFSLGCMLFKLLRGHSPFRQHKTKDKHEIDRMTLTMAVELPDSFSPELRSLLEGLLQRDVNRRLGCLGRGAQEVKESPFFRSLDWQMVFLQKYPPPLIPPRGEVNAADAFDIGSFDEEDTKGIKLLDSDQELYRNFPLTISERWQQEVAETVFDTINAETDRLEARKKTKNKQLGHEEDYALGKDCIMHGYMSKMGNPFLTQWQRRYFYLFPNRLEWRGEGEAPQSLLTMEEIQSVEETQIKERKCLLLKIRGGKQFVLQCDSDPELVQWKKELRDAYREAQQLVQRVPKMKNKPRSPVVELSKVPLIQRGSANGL
Kind of test: Phosphorylation of purified reconstituted β2ARs by purified βAR kinase (Example II). Format: biochemical, bovine. Particulars: 100 μM. The method, then:
FIG. 7. […] (Inset) Relevant section of a representative autoradiogram. Data are means±SEM of three independent experiments. […] Desensitization was measured as the percent loss of stimulation by 10 μM (−)-isoproterenol of adenylyl cyclase activity in membranes. […] Data are means±SEM of four independent experiments.
Purified β2ARs were inserted into phosphatidylcholine vesicles by chromatography on Extracti-gel, followed by polyethylene glycol treatment and centrifugation at 280,000×g for 90 min (Cerione et al (1984) Biochemistry 23:4519-4525). Phosphorylation of the reconstituted receptors by purified βAR kinase was done in the presence of 50 μM (−)-isoproterenol as described (Benovic et al (1987) J. Biol. Chem. 262:9026-9032). Subsequently, the samples were subjected to sodium dodecyl sulfate polyacrylamide gel electrophoresis on 10% gels (Laemmli (1970) Nature 227:680-685). The phosphorylated β2ARs were visualized by autoradiography, and the corresponding bands were cut out and their content of ^32P quantified.

Test [4] has as its target T1, βAR kinase. Kind of test: Inhibition of β2AR phosphorylation by βAR kinase by synthetic peptides (Example III). It counts as biochemical, bovine. Particulars: β2AR as substrate; read-out: IC50 (μM), first intracellular loop peptides as inhibitors of βAR kinase. The procedure: FIG. 13. Inhibition of β2AR phosphorylation by synthetic peptides. Reconstituted β2AR (˜0.4 pmol) was incubated for 30 min at 30° with purified βAR kinase (˜30 ng) in the presence of 50 mM Tris-HCl, pH 7.5, 2 mM EDTA, 10 mM NaCl, 5 mM MgCl2, 5 mM sodium phosphate, 50 μM (−)-isoproterenol and 0.10 mM [γ^32P]ATP (2.0 cpm/fmol). Synthetic β2AR peptides were varied from 0 to 1 mM and included CI (Δ), CII (▴), CIII-2 (◯) and CT-1 (●). Reactions were stopped by the addition of […]. ^32P-labeled receptor was determined by cutting and counting the dried gel following autoradiography.
The β2-adrenergic receptor from hamster lung was purified to apparent homogeneity by sequential affinity and high performance liquid chromatography as described (Benovic et al (1984) Biochemistry 23:4510-4518). The purified receptor was reinserted into phosphatidylcholine vesicles as previously described (Cerione et al (1983) Nature 306:562-566). The protein-lipid pellets were resuspended in 20 mM Tris-HCl, pH 7.2, 2 mM EDTA and used as a substrate for the βAR kinase.
βAR kinase was purified from bovine cerebral cortex by modification of a previously described procedure (Benovic et al (1987) J. Biol. Chem. 262:9026-9032). Briefly, 250 g of bovine cortex was homogenized and the resulting high speed supernatant fraction was precipitated with 13-26% ammonium sulfate. This material was initially chromatographed on an Ultrogel AcA34 column equilibrated with 5 mM Tris-HCl, pH 7.5, 2 mM EDTA, 5 μg/ml leupeptin, 5 μg/ml pepstatin, 15 μg/ml benzamidine, 0.2 mM phenylmethyl sulfonyl fluoride (buffer A). The peak activity was diluted 1:1 with buffer A containing 0.02% triton X-100 and applied to a DEAE Sephacel column. Elution was accomplished with a 0-80 mM NaCl gradient in buffer A containing triton X-100. The peak activity was then applied directly to a CM Fractogel column and eluted with a 0-100 mM NaCl gradient in buffer A containing triton X-100. The purified kinase was stored at 4° C.
The inhibition of substrate phosphorylation by βAR kinase in the presence of synthetic peptides was assayed as follows. Reconstituted βAR (0.2-1 pmol/inclubation) was incubated with βAR kinase (10-30 ng) in a buffer containing 50 mM Tris-HCl, pH 7.5, 2 mM EDTA, 10 mM NaCl, 5 mM MgCl2, 5 mM sodium phosphate, 50 μM (−)-isoproterenol, 0.10 mM [γ-^32P]ATP (1-3 cpm/fmol) at 30° C. for 30 min. Synthetic β2AR peptides were varied in concentration from 0 to 2 mM. Reactions were quenched by the addition of SDS sample buffer followed by gel electrophoresis. In some experiments urea treated rod outer segments (Wilden et al (1982) Biochemistry 21:3014-3022; Shichi et al (1978) J. Biol. Chem. 253:7040-7046) were used as the substrate for βAR kinase. To further define the specificity of the peptide inhibition, phosvitin, casein (see Example I) and the synthetic peptides CT-2 and CT-3 were used as substrates for βAR kinase.
SDS polyacrylamide gel electrophoresis was performed by the method of Laemmli (Nature (1970) 227:[…]) using 10 or 15% homogeneous slab gels. SDS sample buffer contained 8% SDS, 10% glycerol, 5% β-mercaptoethanol, 25 mM Tris-HCl, pH 6.5 and 0.003% bromphenol blue. SDS urea polyacrylamide gel electrophoresis was carried out using 6.5 M urea, 0.1% SDS, 100 mM H3PO4, pH 6.8 with Tris-HCl and 9% acrylamide (Swank et al (1971) Anal. Biochem. 39:462). SDS urea sample buffer contained 1% SDS, 8M urea, 10 mM H3PO4, pH 6.8 with Tris-HCl, 1% β-mercaptoethanol and 0.003% bromphenol blue.

In test [5] the test system is β2ARs in intact A431 cells. Put plainly: Desensitization of β2ARs in intact A431 cells. Format: cell-based, human. The conditions noted are these: data not shown.
Test [6] concerns β2ARs in permeabilized A431 cells. Put plainly: Desensitization of β2ARs in permeabilized A431 cells. It counts as cell-based, human. The procedure: Permeabilization of cells was accomplished as follows. Human epidermoid carcinoma A431 cells were grown to about 95% confluence in Dulbecco's modified Eagle's medium supplemented with 10% fetal calf serum. Cells were harvested with collagenase, washed three times with calcium-free phosphate-buffered saline (PBS), then washed twice in 150 mM potassium glutamate/10 mM Hepes/5 mM EGTA/7 mM MgCl2, pH 7.1 (KG buffer), and finally resuspended in KG buffer supplemented with 5 mM glucose and 2 mM ATP (KG-A buffer) at a density of 4×10^7 cells per ml.
At 4×10^7 cells per ml, about 0.015% digitonin was necessary to achieve permeabilization of >95% cells as assessed by staining with trypan blue. In all experiments, digitonin was added stepwise until >95% of the cells were trypan blue positive.

Read-outs that look alike come from different tables or passages of the source. No end group written: not given here.

Take `CC(C)NC[C@H](O)c1ccc(O)c(O)c1` [isoproterenol, (−)-isoproterenol]: the “increase in the phosphorylation of the β2ARs” value in test [1] amounted to 5 fold. For the same compound, the Emax in test [2] (A-431, 10 min, read-out: desensitization (loss of maximal stimulation), 1 μM isoproterenol 10 min 37° C., both intact and permeabilized cells) was around 30%; in test [2] (A-431, read-out: Emax, maximal stimulation over basal in percent of activity with 10 mM NaF, control intact cells), 56%; in test [2] (A-431, read-out: Emax, maximal stimulation over basal in percent of activity with 10 mM NaF, control permeabilized cells) it was 62%; in test [2] (A-431, read-out: Emax, maximal stimulation over basal in percent of activity with 10 mM NaF, desensitized intact cells), 40%; in test [2] (A-431, read-out: Emax, maximal stimulation over basal in percent of activity with 10 mM NaF, desensitized permeabilized cells) it was 43%. The EC50 (as a rule, the midpoint of the concentration-response curve) in test [2] (A-431, read-out: EC50, adenylyl cyclase stimulation, control intact cells) amounted to 200 nM; in test [2] (A-431, read-out: EC50, adenylyl cyclase stimulation, control permeabilized cells) it was 130 nM; in test [2] (A-431, read-out: EC50, adenylyl cyclase stimulation, desensitized intact cells), 300 nM; in test [2] (A-431, read-out: EC50, adenylyl cyclase stimulation, desensitized permeabilized cells) it was 190 nM.
As to AIAKFERLQTVTNYF [β2AR-(57-71)], at βAR kinase [3], the inhibition (commonly the change of the read-out against control, counted positive when it falls) at 100 µM is 80 ± 13%. Also, the IC50 (commonly the concentration that inhibits the measured activity by half) on βAR kinase [4] was 62 µM. Moreover, in test [5], the “effect on desensitization in intact cells” value is recorded as “Neither compound affected desensitization”. Moreover, in test [6] (100 μM), the “Inhibition of Desensitization, %” value is listed as 52 ± 12%. Also, the “effect on time course of desensitization” value in test [6] (100 μM peptide, 1 μM (−)-isoproterenol) is “markedly slowed the rate of desensitization”.
